# Measured values reported in patent US20240209456A1, “METHODS AND COMPOSITIONS RELATED TO CELL-CYCLE RNA's” (BETH ISRAEL DEACONESS MEDICAL CENTER, priority 2021, published 2024).
# “Also recorded” adds a separate entry of the source.
# Key:
# Format in all cases: binding
# TIP60 = TIP60 (Homo sapiens, UniProt Q92993); experiment: REMSA/EMSA with TIP60 protein; parameters: 5 μg of full length purified H2A.Z (Abcam) and TIP60 (SignalChem) proteins were incubated; purchased SignalChem; conditions: in vitro, 32P-labeled oligonucleotide, purified TIP60; RNA and DNA probes at same molar concentration
# Experimental: (§1) RNA oligonucleotides (15 pmol) were end-labeled with [γ-^32P] ATP (Perkin Elmer) and T4 polynucleotide kinase (New England Biolabs). Reactions were incubated at 37° C. for 1 h and then passed through G-25 spin columns (GE Healthcare) according to the manufacturer's instructions to remove unincorporated radioactivity. Labeled samples were gel-purified on 10% polyacrylamide gels. Binding reactions were carried out in 10 μL volumes in the following buffer: 5 mM Tris pH 7.4, 5 mM MgCl2, 1 mM DTT, 3% v/v glycerol, 100 mM NaCl. 5 μg of full length purified H2A.Z (Abcam) and TIP60 (SignalChem) proteins were incubated with 1.1 nM of ^32P-labeled ss RNAs. All reactions were assembled on ice and then incubated at room temperature for 30 min. Samples were loaded onto 6% native polyacrylamide gels (0.5×TBE) at 4° C. for 3 h at 140 V. Various concentrations (1 μM-10 mM) of H2A.Z and K7 acetylated H2A.Z peptides (AnaSpec) were incubated with a fixed amount of probe in 50 mM Tris-HCl pH 7.5, 100 mM NaCl, 0.4 mM EDTA, and 40 U/ml RNasin, 1 mM DTT, 50% glycerol in a final volume of 10 μL. Thereafter, 1 μl glutaraldehyde (0.2% final concentration) was added into the mixture and incubated at room temperature for 15 minutes. Samples were loaded onto 10% native polyacrylamide gels (0.5×TBE) at 4° C. for 3 h at 170 V. All gels were dried upon fixation with Methanol and Acetic Acid and exposed to X-ray film.
# H2A.Z = molecular target: T1, H2A.Z (Homo sapiens, UniProt P0C0S5); experiment: RNA electrophoresis mobility shift assay (REMSA) with H2A.Z protein; conditions: in vitro, 32P-labeled oligonucleotide, full length purified H2A.Z
# T1 construct: 5 μg of full length purified H2A.Z (Abcam) and TIP60 (SignalChem) proteins were incubated; purchased Abcam
# Experimental: as §1
# [1] = molecular target: T2, H2A.Z and K7 acetylated H2A.Z peptides (Homo sapiens, UniProt P0C0S5); experiment: REMSA with N-terminal H2A.Z peptides; conditions: in vitro, synthetic peptides
# T2 construct: purchased AnaSpec
# Experimental: as §1
# Sequence of TIP60 (Q92993 whole entry): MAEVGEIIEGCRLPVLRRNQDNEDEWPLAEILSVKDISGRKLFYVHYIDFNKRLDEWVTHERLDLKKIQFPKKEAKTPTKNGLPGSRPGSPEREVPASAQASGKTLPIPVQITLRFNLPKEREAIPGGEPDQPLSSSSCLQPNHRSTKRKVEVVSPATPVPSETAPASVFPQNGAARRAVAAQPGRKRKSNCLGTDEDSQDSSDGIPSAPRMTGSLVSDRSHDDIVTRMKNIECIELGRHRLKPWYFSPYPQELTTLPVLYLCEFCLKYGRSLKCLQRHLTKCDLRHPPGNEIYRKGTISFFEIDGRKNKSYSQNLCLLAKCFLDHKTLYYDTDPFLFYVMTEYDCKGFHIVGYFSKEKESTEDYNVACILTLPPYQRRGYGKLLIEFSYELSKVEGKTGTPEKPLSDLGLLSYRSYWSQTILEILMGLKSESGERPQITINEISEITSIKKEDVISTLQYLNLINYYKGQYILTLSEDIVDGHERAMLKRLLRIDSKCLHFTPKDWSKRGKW
# T1 sequence (P0C0S5 whole entry): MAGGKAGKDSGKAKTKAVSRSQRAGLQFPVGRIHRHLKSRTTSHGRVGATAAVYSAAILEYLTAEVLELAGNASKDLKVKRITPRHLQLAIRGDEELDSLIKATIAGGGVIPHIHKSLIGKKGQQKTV
# T2 sequence (P0C0S5 2-21): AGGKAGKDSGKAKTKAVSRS
Substance,complex formation with TIP60 (TIP60),RNP complex formation with H2A.Z (H2A.Z),"shift in migration with H2A.Z N-terminal peptides, unmodified and acetylated at lysine 7 [1]"
"UR2: unrelated RNA oligonucleotide lacking the common binding motif, SEQ ID NO 88 (CUUUCCUCCACUCUCCCUGGGA; RNA, backbone not given here; further chemistry not fully specified)",did not form detectable RNPs complexes,did not form detectable RNPs complexes,
"UR3: unrelated RNA oligonucleotide lacking the common binding motif, SEQ ID NO 89 (GCCCUUUCCCCAGCCUUAGCGA; RNA, backbone not given here; further chemistry not fully specified)",did not form detectable RNPs complexes,did not form detectable RNPs complexes,
"DM9A: double-stranded DNA oligonucleotide of the same primary sequence as RM9A (sense GCCCTTTCCCCAGCCTTAGCGA; antisense TCGCTAAGGCTGGGGAAAGGGC; DNA, backbone and methylation of C not given here; further chemistry not fully specified)",stronger TIP60 binding to the RNAs than to the DNA,,
"DM2: DNA oligonucleotide duplex of the same primary sequence as UR2 (sense CTTTCCTCCACTCTCCCTGGGA; antisense TCCCAGGGAGAGTGGAGGAAAG; DNA, backbone and methylation of C not given here; further chemistry not fully specified)",weak complex formation,,
"UR1: unrelated RNA oligonucleotide lacking the common binding motif, SEQ ID NO 87 (GCGCCCUGCAGCCUGGUACGCG; RNA, backbone not given here; further chemistry not fully specified)",did not form detectable RNPs complexes,did not form detectable RNPs complexes,
"RM9A: RNA oligonucleotide of common binding motif 9 in c-MYC SPEARs, 5′-GGCGUGGCGGUGGGCGCGCAGU-3′, SEQ ID NO 85 (GGCGUGGCGGUGGGCGCGCAGU; RNA, backbone not given here; further chemistry not fully specified)",able to form RNPs; also recorded: stronger TIP60 binding to the RNAs than to the DNA,able to form RNPs,A shift in migration was observed
"DM3: DNA oligonucleotide duplex of the same primary sequence as UR3 (sense GGCGTGGCGGTGGGCGCGCAGT; antisense ACTGCGCGCCCACCGCCACGCC; DNA, backbone and methylation of C not given here; further chemistry not fully specified)",weak complex formation,,
"Mut RM9A: mutated RM9A abolishing the predicted stem-loop structure, SEQ ID NO 86 (UUAUGUUAUUGUUUAUAUACGU; RNA, backbone not given here; further chemistry not fully specified)",did change the strength and the mobility of the RNA-TIP60 complexes,,
